In the Kinase Knowledgebase extract (Sharma et al. 2016) one finds IC50 data, which are given here for 16 compounds.

The structures appear in SMILES notation.

The target in this assay is MAPK14 (UniProt Q16539). The assay can be described thus: Inhibition of MAPK14 Kinase Activity.
Chain of MAPK14 (Q16539 whole entry, looked up): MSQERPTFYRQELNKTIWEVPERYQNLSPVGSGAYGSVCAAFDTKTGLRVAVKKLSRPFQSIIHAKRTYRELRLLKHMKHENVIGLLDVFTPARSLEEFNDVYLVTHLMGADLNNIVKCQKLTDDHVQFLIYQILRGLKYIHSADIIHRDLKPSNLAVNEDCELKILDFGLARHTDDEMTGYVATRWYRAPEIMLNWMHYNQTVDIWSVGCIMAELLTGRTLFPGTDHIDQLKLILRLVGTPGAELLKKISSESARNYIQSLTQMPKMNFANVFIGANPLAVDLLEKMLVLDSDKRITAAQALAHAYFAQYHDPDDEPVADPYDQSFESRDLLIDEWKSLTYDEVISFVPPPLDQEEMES
Turning to `CNC(=O)C(=O)c1c[nH]c2nc(OC)c(C(=O)N3CCC(Cc4ccc(F)cc4)CC3)cc12`, the IC50 (as a rule, the point on the concentration scale where inhibition reaches its midpoint) came to 0.044 µM.

Consider `COc1nc2c(cc1C(=O)N1CCC(Cc3ccc(F)cc3)CC1)c(C(=O)C(=O)N1CCCC1)cn2C`, for which the IC50 is 0.035 µM.

Compound `COc1nc2[nH]cc(C(=O)C(=O)NCCO)c2cc1C(=O)N1CCC(Cc2ccc(F)cc2)CC1` registered a concentration for half-maximal inhibition (IC50) of 0.056 µM.

For the compound `COCn1cc(C(=O)C(=O)N2CCCC2)c2cc(C(=O)N3CCC(Cc4ccc(F)cc4)CC3)c(OC)nc21`, the concentration for half-maximal inhibition (IC50) was 0.079 µM.

For the compound `COc1nc2[nH]ccc2cc1C(=O)N1C[C@H](C)N(Cc2ccc(F)cc2)C[C@H]1C`, the 50% inhibitory concentration (IC50) amounted to 0.035 µM.

For `COc1cc2[nH]ccc2nc1C(=O)N1C[C@H](C)N(Cc2ccc(F)cc2)C[C@H]1C`, the IC50 turned out to be 0.041 µM. The IC50 values of the last two compounds are within 1.5-fold of each other.

`C[C@@H]1CN(Cc2ccc(F)cc2)[C@@H](C)CN1C(=O)c1nc2cc[nH]c2cc1Cl` had a concentration for half-maximal inhibition (IC50) of 0.066 µM.

`COCC(=O)c1c[nH]c2nc(OC)c(C(=O)N3CCN(Cc4ccc(F)cc4)C[C@H]3C)cc12` gave an IC50 of 0.076 µM.

Take `COc1nc2[nH]cc(C(=O)C(=O)N3CCCC3)c2cc1C(=O)N1CCC(Cc2ccc(F)cc2)CC1`: the IC50 came to 0.05 µM.

Turning to `CCNC(=O)C(=O)c1cn(C)c2nc(OC)c(C(=O)N3C[C@H](C)N(Cc4ccc(F)cc4)C[C@H]3C)cc12`, the concentration for half-maximal inhibition (IC50) was found to be 0.02 µM.

Compound `CCN(C)C(=O)C(=O)c1c[nH]c2nc(OC)c(C(=O)N3CCC(Cc4ccc(F)cc4)CC3)cc12` gave an IC50 of 0.063 µM. Against the preceding compound, the IC50 is about 3.1-fold higher.

The compound `COc1nc2[nH]cc(C(=O)C(=O)N(C)C)c2cc1C(=O)N1CCC(Cc2ccc(F)cc2)CC1` yielded an IC50 of 0.06 µM.

On to `COCn1ccc2cc(C(=O)N3CCC(Cc4ccc(F)cc4)CC3)c(OC)nc21`, for which the IC50 came to 0.34 µM.

`COc1nc2[nH]cc(C(=O)C(=O)N3CC[C@@H](O)C3)c2cc1C(=O)N1CCC(Cc2ccc(F)cc2)CC1` had an IC50 of 0.032 µM.

The compound `COc1nc2[nH]cc(C(=O)C(=O)NN3CCCC3)c2cc1C(=O)N1CCC(Cc2ccc(F)cc2)CC1` registered an IC50 of 0.039 µM.

The compound `COCn1cc(C(=O)C(=O)NC(C)C)c2cc(C(=O)N3C[C@H](C)N(Cc4ccc(F)cc4)C[C@H]3C)c(OC)nc21` gave an IC50 of 0.06 µM. Compared with the last compound, the IC50 is about 1.5-fold higher.
